BindingDB's records for PubMed 8102785 (University of Pennsylvania, 1993)
*1 amine or outer side, *2 acyl side, *3 side chain or, on linkers, in order; H or OH if unused. Where a SMILES comes first, the peptide text is derived from it. Bridges are numbered along the chain shown (N, C = ends). [ ]: non-standard residue; d: D form. The star is where a group is joined. ξ: configuration not given here. Phe(4-NO2) = N[C@@H](Cc1ccc([N+](=O)[O-])cc1)C(=O)O; X3 = C[C@@H](C(=O)[*:2])N(Cc1ccc2ccccc2c1)[*:1]; NH(1-naphthylmethyl) = c1ccc2c(CN*)cccc2c1; Phe(4-Cl) = N[C@@H](Cc1ccc(Cl)cc1)C(=O)O; dPhe(4-Cl) = N[C@H](Cc1ccc(Cl)cc1)C(=O)O; 1Nal = N[C@@H](Cc1cccc2ccccc12)C(=O)O; 2Nal = N[C@@H](Cc1ccc2ccccc2c1)C(=O)O; d2Nal = N[C@H](Cc1ccc2ccccc2c1)C(=O)O; dNMeF = CN[C@H](Cc1ccccc1)C(=O)O; dThr(3ξ) = CC(O)[C@@H](N)C(=O)O; Thr(3ξ) = CC(O)[C@H](N)C(=O)O; dNMeA = CN[C@H](C)C(=O)O; ξF = NC(Cc1ccccc1)C(=O)O; Abu = CC[C@H](N)C(=O)O; X2 = CC(O)[C@H](CO)N*; Ahp = NCCCCCCC(=O)O; Ahx = NCCCCCC(=O)O; Bn = c1ccc(C*)cc1; ξC = NC(CS)C(=O)O

Biological target: Somatostatin receptor type 4 (Rattus norvegicus, UniProt P30937)
Sequence (P30937 whole entry): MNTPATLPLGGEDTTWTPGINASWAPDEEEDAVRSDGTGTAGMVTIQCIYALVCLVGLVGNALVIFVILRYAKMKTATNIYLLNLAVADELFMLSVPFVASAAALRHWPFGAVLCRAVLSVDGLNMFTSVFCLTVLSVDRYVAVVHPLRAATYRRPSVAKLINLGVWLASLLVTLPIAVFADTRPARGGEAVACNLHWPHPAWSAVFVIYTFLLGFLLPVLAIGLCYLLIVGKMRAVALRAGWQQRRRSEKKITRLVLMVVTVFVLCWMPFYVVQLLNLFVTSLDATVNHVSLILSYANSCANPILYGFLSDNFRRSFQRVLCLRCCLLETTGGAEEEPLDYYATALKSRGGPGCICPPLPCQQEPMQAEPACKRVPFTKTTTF

| SMILES | Ki |
| --- | --- |
| CC(C)[C@H](NC(=O)[C@H](CCCCN)NC(=O)[C@@H](Cc1c[nH]c2ccccc12)NC(=O)[C@H](Cc1ccc(O)cc1)NC(=O)[C@H](C)NCc1ccc2ccccc2c1)C(=O)N[C@@H](C)C(=O)N[C@H](C(N)=O)[C@@H](C)O [D-Nal-Ala-Tyr-D-Trp-Lys-Val-Ala-Thr-NH2] (H-[X3]Y[dW]KVAT-NH2) | 146 nM |
| CC(C)[C@H](NC(=O)[C@H](CCCCN)NC(=O)[C@@H](Cc1c[nH]c2ccccc12)NC(=O)[C@H](Cc1ccc(O)cc1)NC(=O)[C@H](C)NC(=O)[C@H](N)Cc1ccc(Cl)cc1)C(=O)N[C@@H](C)C(=O)N[C@@H](Cc1ccc2ccccc2c1)C(N)=O [CAS_150155-67-2] (H-[dPhe(4-Cl)]AY[dW]KVA[2Nal]-NH2) | 14 nM |
| CC(C)[C@@H]1NC(=O)[C@@H](CCCCN)NC(=O)[C@@H](Cc2c[nH]c3ccccc23)NC(=O)[C@@H](Cc2ccc(O)cc2)NC(=O)[C@@H](C)N(C)C(=O)[C@@H](Cc2ccccc2)NC1=O | 26 nM |
| CC(C)[C@@H]1NC(=O)[C@H](CCCCN)NC(=O)[C@@H](Cc2c[nH]c3ccccc23)NC(=O)[C@H](Cc2ccc(O)cc2)NC(=O)[C@@H](NC(=O)[C@H](N)Cc2ccc3ccccc3c2)CSSC[C@@H](C(=O)N[C@H](C(N)=O)[C@@H](C)O)NC1=O [3-(2-Naphtyl)-D-Ala-L-Cys(1)-L-Tyr-D-Trp-L-Lys-L-Val-L-Cys(1)-L-Thr-NH2] | 0.1 nM |
| NCCCCC1NC(=O)C(Cc2c[nH]c3ccccc23)NC(=O)C(Cc2ccc(O)cc2)NC(=O)C(NC(=O)C(N)Cc2ccccc2)CSSCC(C(=O)NCc2cccc3ccccc23)NC(=O)C(CO)NC1=O (stereo not given) [NC4-28B] (H-FCYWKSC-{NH(1-naphthylmethyl)}; disulfide 2-7; configuration not given here) | 1 nM |
| C[C@H](O)[C@H]1NC(=O)[C@H](CCCCN)NC(=O)[C@@H](Cc2c[nH]c3ccccc23)NC(=O)[C@@H](Cc2ccccc2)NC(=O)[C@@H](C)N(C)C(=O)[C@@H](Cc2ccccc2)N(C)C1=O [N-Methylcyclo(D-Ala-D-Phe-D-Trp-L-Lys-D-Thr-N-methyl-D-Phe-)] (cyclo(K[dT][dNMeF][dNMeA][dF][dW])) | 405 nM |
| NCCCC[C@@H]1NC(=O)[C@@H](Cc2c[nH]c3ccccc23)NC(=O)[C@H](Cc2ccccc2)NC(=O)CCCCCCNC(=O)[C@H](COCc2ccccc2)NC1=O [c[Aha-Phe-D-Trp-Lys-Ser(Bzl)]] (cyclo([Ahp]F[dW]KS(Bn))) | 188 nM |
| CC(O)[C@H](NC(=O)[C@H](CCCCN)NC(=O)[C@@H](Cc1c[nH]c2ccccc12)NC(=O)[C@H](Cc1ccc(O)cc1)NC(=O)[C@@H](C)NC(=O)[C@@H](N)Cc1ccccc1)C(=O)N[C@@H](C)C(=O)N[C@@H](Cc1cccc2ccccc12)C(N)=O (stereo not given in full) [BIM 23070] (H-F[dA]Y[dW]K[Thr(3ξ)]A[1Nal]-NH2) | 10 nM |
| C[C@@H](O)[C@@H]1NC(=O)[C@H](CCCCN)NC(=O)[C@@H](Cc2c[nH]c3ccccc23)NC(=O)[C@H](Cc2ccccc2)NC(=O)[C@@H]2CCCN2C(=O)[C@H](Cc2ccccc2)NC1=O (cyclo(PF[dW]KTF)) | 3.2 nM |
| C[C@@H](OCc1ccccc1)[C@@H]1NC(=O)[C@H](CCCCN)NC(=O)[C@@H](Cc2c[nH]c3ccccc23)NC(=O)[C@H](Cc2ccccc2)NC(=O)CCCCCNC1=O [c[Ahx-Phe-D-Trp-Lys-Thr(Bzl)]] (cyclo([Ahx]F[dW]KT(Bn))) | 34 nM |
| CC(O)C1NC(=O)C(CCCCN)NC(=O)C(Cc2c[nH]c3ccccc23)NC(=O)C(Cc2ccc(O)cc2)NC(=O)C(NC(=O)C(N)Cc2ccccc2)CSSCC(C(=O)NCc2cccc3ccccc23)NC1=O (stereo not given) [BIM 23060] (H-FCYWKTC-{NH(1-naphthylmethyl)}; disulfide 2-7; configuration not given here) | 0.09 nM |
| CC(C)[C@H](NC(=O)[C@H](CCCCN)NC(=O)[C@@H](Cc1c[nH]c2ccccc12)NC(=O)[C@H](Cc1ccc(O)cc1)NC(=O)[C@H](Cc1ccc(Cl)cc1)NC(=O)[C@@H](N)Cc1ccccc1)C(=O)N[C@@H](Cc1ccccc1)C(=O)N[C@@H](Cc1ccc2ccccc2c1)C(N)=O [BIM 23063] (H-F[Phe(4-Cl)]Y[dW]KVF[2Nal]-NH2) | 43 nM |
| CC[C@H](NC(=O)[C@@H](N)Cc1ccc(Cl)cc1)C(=O)N[C@@H](Cc1ccc(O)cc1)C(=O)N[C@H](Cc1c[nH]c2ccccc12)C(=O)N[C@@H](CCCCN)C(=O)N[C@H](C(=O)N[C@@H](C)C(=O)N[C@H](Cc1ccccc1)C(N)=O)C(C)C [BIM 23067] (H-[Phe(4-Cl)][Abu]Y[dW]KVA[dF]-NH2) | 15 nM |
| CC(C)C1NC(=O)C(CCCCN)NC(=O)C(Cc2c[nH]c3ccccc23)NC(=O)C(Cc2ccc(O)cc2)NC(=O)C(C)N(C)C(=O)C(Cc2ccccc2)NC1=O (stereo not given) [CAS_3086456] | 5.5 nM |
| CC(C)[C@H](NC(=O)[C@H](CCCCN)NC(=O)[C@@H](Cc1c[nH]c2ccccc12)NC(=O)[C@H](Cc1ccc(O)cc1)NC(=O)[C@H](C)NC(=O)[C@H](N)Cc1ccccc1)C(=O)N[C@@H](C)C(=O)N[C@H](Cc1ccc2ccccc2c1)C(N)=O [D-Phe-AIa-Tyr-D-Trp-Lys-Val-Ala-D-Nal-NH2] (H-[dF]AY[dW]KVA[d2Nal]-NH2) | 5.9 nM |
| CSCC[C@H](NC(=O)[C@H](C)NC(=O)[C@@H]1CCCN1C(=O)[C@H](CC(N)=O)NC(=O)[C@H](CO)NC(=O)[C@H](CC(N)=O)NC(=O)[C@H](C)NC(=O)[C@@H](N)CO)C(=O)N[C@@H](C)C(=O)N1CCC[C@H]1C(=O)N[C@@H](CCCNC(=N)N)C(=O)N[C@@H](CCC(=O)O)C(=O)N[C@@H](CCCNC(=N)N)C(=O)N[C@@H](CCCCN)C(=O)N[C@@H](C)C(=O)NCC(=O)N[C@H]1CSSC[C@@H](C(=O)O)NC(=O)[C@H](CO)NC(=O)[C@H]([C@@H](C)O)NC(=O)[C@H](Cc2ccccc2)NC(=O)[C@H]([C@@H](C)O)NC(=O)[C@H](CCCCN)NC(=O)[C@H](Cc2c[nH]c3ccccc23)NC(=O)[C@H](Cc2ccccc2)NC(=O)[C@H](Cc2ccccc2)NC(=O)[C@H](CC(N)=O)NC(=O)[C@H](CCCCN)NC1=O [somatostatin-28] | 0.23 nM |
| CC(C)[C@H](NC(=O)[C@H](CCCCN)NC(=O)[C@@H](Cc1c[nH]c2ccccc12)NC(=O)[C@H](Cc1ccc(O)cc1)NC(=O)[C@H](Cc1ccc([N+](=O)[O-])cc1)NC(=O)[C@H](N)Cc1ccccc1)C(=O)N[C@@H](Cc1ccccc1)C(=O)N[C@H](C(N)=O)[C@@H](C)O [BIM 23066] (H-[dF][Phe(4-NO2)]Y[dW]KVFT-NH2) | 2.4 nM |
| CC(C)[C@H](NC(=O)[C@H](CCCCN)NC(=O)[C@@H](Cc1c[nH]c2ccccc12)NC(=O)[C@H](Cc1ccc(O)cc1)NC(=O)[C@H](Cc1ccc(Cl)cc1)NC(=O)[C@H](N)Cc1ccccc1)C(=O)N[C@@H](Cc1ccccc1)C(=O)N[C@H](C(N)=O)[C@@H](C)O [BIM 23057] (H-[dF][Phe(4-Cl)]Y[dW]KVFT-NH2) | 8.1 nM |
| CC(C)[C@H](NC(=O)[C@H](CCCCN)NC(=O)[C@@H](Cc1c[nH]c2ccccc12)NC(=O)[C@H](Cc1ccc(O)cc1)NC(=O)[C@H](Cc1ccccc1)NC(=O)[C@H](N)Cc1ccccc1)C(=O)N[C@@H](Cc1ccccc1)C(=O)N[C@H](Cc1ccccc1)C(N)=O [D-Phe-Phe-Tyr-D-Trp-Lys-Val-Phe-D-Phe-NH2] (H-[dF]FY[dW]KVF[dF]-NH2) | 3.3 nM |
| CC(O)[C@H](CO)NC(=O)[C@@H]1CSSCC(NC(=O)C(N)Cc2ccccc2)C(=O)N[C@H](Cc2ccccc2)C(=O)N[C@H](Cc2c[nH]c3ccccc23)C(=O)N[C@H](CCCCN)C(=O)N[C@H](C(C)O)C(=O)N1 (stereo not given in full) (H-[ξF][ξC][dF][dW][dK][dThr(3ξ)]C-X2; disulfide 2-7) | 0.57 nM |
